# Columns and labels:
# [1] = test system: Methicillin Resistant Staphylococcus aureus strain USA 200; test: Minimum inhibitory concentration (MIC), CLSI broth micro-dilution, S. aureus; format: cell-based; conditions: Staphylococcus aureus, MRSA / USA200; Table 6; MRSA USA 200; cation adjusted Mueller Hinton Broth + 0.002% Tween-80; 35° C., 22 hours
# How it was run: (§1)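 Antibacterial potency is measured as MIC by the CLSI broth dilution method. Bacteria at OD600 0.0005 in Tween-80-supplemented cation-adjusted Mueller Hinton broth face ten twofold compound dilutions for 22 h at 35° C.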
# [2] = test system: Escherichia coli ATCC 25922; test: Minimum inhibitory concentration (MIC), CLSI broth micro-dilution, E. coli; format: cell-based; conditions: Escherichia coli, ATCC25922, 22 h, Table 6, cation adjusted Mueller Hinton Broth + 0.002% Tween-80, 35° C.
# How it was run: as §1
SMILES,MIC [1] [µM],MIC [2] [µM]
"Cc1nc(-c2ccc(C=C3CCCC3)cc2)nc(C)c1C(=O)N[C@@H](CCN)C(=O)N(C)[C@@H]1C(=O)N[C@@H](C)C(=O)N[C@H](C(=O)NCC#N)Cc2ccc(OCCN)c(c2)-c2cc1ccc2OCCN (racemic) [Compound 274, rac-(8S,11S,14S)-3,18-bis(2-aminoethoxy)-N-(cyanomethyl)-11-methyl-14-[methyl-[rac-(2S)-4-amino-2-[[2-[4-(cyclopentylidenemethyl)phenyl]-4,6-dimethyl-pyrimidine-5-carbonyl]amino]butanoyl]amino]-10,13-dioxo-9,12-diazatricyclo[13.3.1.12,6]icosa-1(18),2(20),3,5,15(19),16-hexaene-8-carboxamide]",0.023,0.063
"Cc1nc(-c2ccc(CC3CCCC3)cc2)nc(C)c1C(=O)N[C@@H](CCN)C(=O)N(C)[C@@H]1C(=O)N[C@@H](C)C(=O)N[C@H](C(=O)NCC#N)Cc2ccc(OCCN)c(c2)-c2cc1ccc2OCCN (racemic) [Compound 275, rac-(8S,11S,14S)-3,18-bis(2-aminoethoxy)-N-(cyanomethyl)-11-methyl-14-[methyl-[rac-(2S)-4-amino-2-[[2-[4-(cyclopentylmethyl)phenyl]-4,6-dimethyl-pyrimidine-5-carbonyl]amino]butanoyl]amino]-10,13-dioxo-9,12-diazatricyclo[13.3.1.12,6]icosa-1(18),2(20),3,5,15(19),16-hexaene-8-carboxamide]",0.012,0.094
"CCC(=Cc1ccc(-c2nc(C)c(C(=O)N[C@@H](CCN)C(=O)N(C)[C@@H]3C(=O)N[C@@H](C)C(=O)N[C@H](C(=O)NCC#N)Cc4ccc(OCCN)c(c4)-c4cc3ccc4OCCN)c(C)n2)cc1)CC (racemic) [Compound 276, rac-(8S,11S,14S)-3,18-bis(2-aminoethoxy)-N-(cyanomethyl)-11-methyl-14-[methyl-[rac-(2S)-4-amino-2-[[2-[4-(2-ethylbut-1-enyl)phenyl]-4,6-dimethyl-pyrimidine-5-carbonyl]amino]butanoyl]amino]-10,13-dioxo-9,12-diazatricyclo[13.3.1.12,6]icosa-1(18),2(20),3,5,15(19),16-hexaene-8-carboxamide]",0.016,0.063
"CCC(CC)Cc1ccc(-c2nc(C)c(C(=O)N[C@@H](CCN)C(=O)N(C)[C@@H]3C(=O)N[C@@H](C)C(=O)N[C@H](C(=O)NCC#N)Cc4ccc(OCCN)c(c4)-c4cc3ccc4OCCN)c(C)n2)cc1 (racemic) [Compound 277, rac-(8S,11S,14S)-3,18-bis(2-aminoethoxy)-N-(cyanomethyl)-11-methyl-14-[methyl-[rac-(2S)-4-amino-2-[[2-[4-(2-ethylbutyl)phenyl]-4,6-dimethyl-pyrimidine-5-carbonyl]amino]butanoyl]amino]-10,13-dioxo-9,12-diazatricyclo[13.3.1.12,6]icosa-1(18),2(20),3,5,15(19),16-hexaene-8-carboxamide]",0.016,0.13
"CCC/C=C/c1ccc(-c2nc(C)c(C(=O)N[C@@H](CCN)C(=O)N(C)[C@@H]3C(=O)N[C@@H](C)C(=O)N[C@H](C(=O)NCC#N)Cc4ccc(OCCN)c(c4)-c4cc3ccc4OCCN)c(C)n2)cc1 (racemic) [Compound 278, rac-(8S,11S,14S)-3,18-bis(2-aminoethoxy)-N-(cyanomethyl)-11-methyl-14-[methyl-[rac-(2S)-4-amino-2-[[4,6-dimethyl-2-[4-[rac-(E)-pent-1-enyl]phenyl]pyrimidine-5-carbonyl]amino]butanoyl]amino]-10,13-dioxo-9,12-diazatricyclo[13.3.1.12,6]icosa-1(18),2(20),3,5,15(19),16-hexaene-8-carboxamide]",0.0078,0.094
"Cc1nc(-c2ccc(C3(C)CC3)cc2)nc(C)c1C(=O)N[C@@H](CCN)C(=O)N(C)[C@@H]1C(=O)N[C@@H](C)C(=O)N[C@H](C(=O)NCC#N)Cc2ccc(OCCN)c(c2)-c2cc1ccc2OCCN (racemic) [Compound 280, rac-(8S,11S,14S)-3,18-bis(2-aminoethoxy)-N-(cyanomethyl)-11-methyl-14-[methyl-[rac-(2S)-4-amino-2-[[4,6-dimethyl-2-[4-(1-methylcyclopropyl)phenyl]pyrimidine-5-carbonyl]amino]butanoyl]amino]-10,13-dioxo-9,12-diazatricyclo[13.3.1.12,6]icosa-1(18),2(20),3,5,15(19),16-hexaene-8-carboxamide]",0.031,0.13

# Results, then the compound that gave them:
MIC [1] [µM],MIC [2] [µM],SMILES
0.016,0.065,"CCC1(c2ccc(-c3nc(C)c(C(=O)N[C@@H](CCN)C(=O)N(C)[C@@H]4C(=O)N[C@@H](C)C(=O)N[C@H](C(=O)NCC#N)Cc5ccc(OCCN)c(c5)-c5cc4ccc5OCCN)c(C)n3)cc2)CC1 (racemic) [Compound 281, rac-(8S,11S,14S)-3,18-bis(2-aminoethoxy)-N-(cyanomethyl)-11-methyl-14-[methyl-[rac-(2S)-4-amino-2-[[2-[4-(1-ethylcyclopropyl)phenyl]-4,6-dimethyl-pyrimidine-5-carbonyl]amino]butanoyl]amino]-10,13-dioxo-9,12-diazatricyclo[13.3.1.12,6]icosa-1(18),2(20),3,5,15(19),16-hexaene-8-carboxamide]"
0.016,0.094,"CCCC1(c2ccc(-c3nc(C)c(C(=O)N[C@@H](CCN)C(=O)N(C)[C@@H]4C(=O)N[C@@H](C)C(=O)N[C@H](C(=O)NCC#N)Cc5ccc(OCCN)c(c5)-c5cc4ccc5OCCN)c(C)n3)cc2)CC1 (racemic) [Compound 282, rac-(8S,11S,14S)-3,18-bis(2-aminoethoxy)-N-(cyanomethyl)-11-methyl-14-[methyl-[rac-(2S)-4-amino-2-[[4,6-dimethyl-2-[4-(1-propylcyclopropyl)phenyl]pyrimidine-5-carbonyl]amino]butanoyl]amino]-10,13-dioxo-9,12-diazatricyclo[13.3.1.12,6]icosa-1(18),2(20),3,5,15(19),16-hexaene-8-carboxamide]"
0.012,0.094,"CCCCC1(c2ccc(-c3nc(C)c(C(=O)N[C@@H](CCN)C(=O)N(C)[C@@H]4C(=O)N[C@@H](C)C(=O)N[C@H](C(=O)NCC#N)Cc5ccc(OCCN)c(c5)-c5cc4ccc5OCCN)c(C)n3)cc2)CC1 (racemic) [Compound 283, rac-(8S,11S,14S)-3,18-bis(2-aminoethoxy)-N-(cyanomethyl)-11-methyl-14-[methyl-[rac-(2S)-4-amino-2-[[2-[4-(1-butylcyclopropyl)phenyl]-4,6-dimethyl-pyrimidine-5-carbonyl]amino]butanoyl]amino]-10,13-dioxo-9,12-diazatricyclo[13.3.1.12,6]icosa-1(18),2(20),3,5,15(19),16-hexaene-8-carboxamide]"
0.016,0.13,"Cc1nc(-c2ccc3c(c2)CCC32CC2)nc(C)c1C(=O)N[C@@H](CCN)C(=O)N(C)[C@@H]1C(=O)N[C@@H](C)C(=O)N[C@H](C(=O)NCC#N)Cc2ccc(OCCN)c(c2)-c2cc1ccc2OCCN (racemic) [Compound 284, rac-(8S,11S,14S)-3,18-bis(2-aminoethoxy)-N-(cyanomethyl)-11-methyl-14-[methyl-[rac-(2S)-4-amino-2-[(4,6-dimethyl-2-spiro[cyclopropane-1,1′-indane]-5′-yl-pyrimidine-5-carbonyl)amino]butanoyl]amino]-10,13-dioxo-9,12-diazatricyclo[13.3.1.12,6]icosa-1(18),2(20),3,5,15(19),16-hexaene-8-carboxamide]"
